For 5 compounds, MIC results are on record in DBAASP.

Common to all, as to experiment: ≥ marks a high value that may be exact or a test limit, other limits are often not marked, values filed in µg/mL are converted to µM
Test [1] concerns Aeromonas hydrophila.
In test [2] the test system is Bacillus cereus.
The subject of test [3] is Bacillus megaterium.
The test system of test [4] is Burkholderia stabilis.
For test [5], the system named is Escherichia coli.
The subject of test [6] is Kluyvera cryocrescens.
The test system of test [7] is Lelliottia amnigena.
Test [8] deals with Microbacterium oxydans.
Test [9] has as its system Micrococcus luteus.
Test [10] relates to Proteus sp.
Test [11] deals with Pseudomonas fluorescens.
The test system of test [12] is Salmonella enterica subsp. enterica serovar Gallinarum.
For test [13], the system named is Salmonella enterica subsp. enterica serovar Typhi.
The test system of test [14] is Shigella sp.
The subject of test [15] is Sporosarcina ureae.
The test system of test [16] is Staphylococcus aureus.
Test [17] relates to Lactiplantibacillus plantarum 965.
The test system of test [18] is Latilactobacillus sakei NCDO 2714.
Test [19] has as its system Bacillus megaterium CIP 6620.
The test system of test [20] is Corynebacterium stationis CIP 101282.
The subject of test [21] is Escherichia coli SBS 363.
For test [22], the system named is Microbacterium maritypicum CIP 105733T.
Test [23] has as its system Micrococcus luteus CIP 5345.
Test [24] relates to Staphylococcus aureus CIP 103428.
The subject of test [25] is Staphylococcus aureus SG511.
Test [26] concerns Staphylococcus haemolyticus.
The test system of test [27] is Vibrio nigripulchritudo CIP 103195.
Test [28] deals with Vibrio splendidus CIP 107715.
Test [29] relates to Acinetobacter baumannii KCTC 2508.
The test system of test [30] is Escherichia coli ATCC 25922.
Test [31] has as its system Klebsiella pneumoniae KCTC 2208.
In test [32] the test system is Klebsiella pneumoniae.
In test [33] the test system is Micrococcus luteus ATCC 49732.
The subject of test [34] is Pseudomonas aeruginosa ATCC 27853.
In test [35] the test system is Staphylococcus aureus ATCC 25923.
Test [36] has as its system Vibrio anguillarum ATCC 43308.
Test [37] concerns Escherichia coli HB101.

SMILES strings stand for the structures. Converted amounts (≈) assume the structure as drawn. “And” between values parts separate entries of the source, which are not always exact repeats. Equal entries are not always repeated. Where only a bound is given, the exact number is not on record here.

As for `CC[C@H](C)[C@H](NC(=O)[C@H](Cc1cnc[nH]1)NC(=O)[C@H](CC(N)=O)NC(=O)[C@@H](NC(=O)[C@@H](NC(=O)[C@H](CC(C)C)NC(=O)[C@H](CC(=O)O)NC(=O)[C@@H]1CCCN1C(=O)[C@H](CC(C)C)NC(=O)[C@H](CCCCN)NC(=O)[C@H](Cc1c[nH]c2ccccc12)NC(=O)[C@@H](N)CCC(=O)O)[C@@H](C)CC)[C@@H](C)CC)C(=O)N[C@H](C(=O)N[C@@H](CC(C)C)C(=O)N[C@H](C(=O)N[C@@H](CCCN=C(N)N)C(=O)N[C@@H](CCCN=C(N)N)C(=O)N[C@@H](CC(N)=O)C(=O)N[C@H]1CSSC[C@@H](C(=O)NCC(=O)O)NC(=O)[C@H](CCCN=C(N)N)NC(=O)[C@H](Cc2ccc(O)cc2)NC(=O)[C@H](CCCCN)NC(=O)[C@H](Cc2ccccc2)NC1=O)[C@@H](C)O)[C@@H](C)O` [EWKLPDLIINHITLTRRNCFKYRCG], the MIC (commonly the lowest concentration that inhibits growth of the organism) in [1] was 1.64 µM (≈ 5.07 µg/mL); in test [2] it was 0.327 µM (≈ 1.01 µg/mL); in test [3] it was 3.27 µM (≈ 10.1 µg/mL); in test [4] it was at least 164 µM; in test [5], 16.4 µM (≈ 50.7 µg/mL); in test [6] it was at least 164 µM. For the same compound, the MIC was 16.4 µM (≈ 50.7 µg/mL) in test [7]; 0.164 µM (≈ 0.507 µg/mL) in test [8]; 16.4 µM (≈ 50.7 µg/mL) in test [9]; at least 164 µM in [10]; at least 32.7 µM in test [11]; 1.64 µM (≈ 5.07 µg/mL) in [12]. Further, the MIC was 16.4 µM (≈ 50.7 µg/mL) in [13], 16.4 µM (≈ 50.7 µg/mL) in test [14], at least 164 µM in test [15] and 164 µM (≈ 507 µg/mL) in test [16].

As to `CC[C@H](C)[C@H](NC(=O)[C@H](C)NC(=O)[C@@H](NC(=O)[C@H](C)NC(=O)CN)[C@@H](C)O)C(=O)N[C@@H](CCCCN)C(=O)N[C@@H](CCC(N)=O)C(=O)N[C@H](C(=O)N[C@@H](CCCCN)C(=O)N[C@@H](CCCCN)C(=O)N[C@@H](CC(C)C)C(=O)N[C@@H](Cc1ccccc1)C(=O)N[C@@H](CCCCN)C(=O)N[C@@H](CCCCN)C(=O)N[C@@H](Cc1c[nH]c2ccccc12)C(=O)NCC(=O)N[C@@H](Cc1c[nH]c2ccccc12)C(=O)O)C(C)C` [GATAIKQVKKLFKKWGW], the results for the MIC in [17] and in test [18] were 0.4 µM (≈ 0.796 µg/mL) and 0.015 µM (≈ 0.0298 µg/mL), respectively.

In the case of `CC[C@H](C)[C@H](NC(=O)[C@@H]1CCCN1C(=O)CN)C(=O)N[C@@H](CCCN=C(N)N)C(=O)N[C@@H](CCCN=C(N)N)C(=O)N1CCC[C@H]1C(=O)N[C@@H](CCCCN)C(=O)N1CCC[C@H]1C(=O)N[C@@H](CCCN=C(N)N)C(=O)N1CCC[C@H]1C(=O)N[C@@H](CCCN=C(N)N)C(=O)N[C@@H](CCC(N)=O)C(=O)N[C@@H](CCCN=C(N)N)C(=O)N1CCC[C@H]1C(=O)N[C@@H](CCC(=O)O)C(=O)O` [GPIRRPKPRPRQRPE], the MIC was 20 µM (≈ 36.8 µg/mL) in test [19]; 20 µM (≈ 36.8 µg/mL) in [20]; at least 80 µM in test [21]; 20 µM (≈ 36.8 µg/mL) in test [22]; at least 80 µM in test [23]; 20 µM (≈ 36.8 µg/mL) in [24]. Moreover, the MIC in test [25] is 20 µM (≈ 36.8 µg/mL); in test [26], 20 µM (≈ 36.8 µg/mL); in [27], at least 40 µM; in [28], at least 40 µM.

Take `CC[C@H](C)[C@H](NC(=O)[C@@H](NC(=O)[C@H](Cc1cnc[nH]1)NC(=O)[C@H](CCCN=C(N)N)NC(=O)[C@H](C)NC(=O)[C@H](CCCN=C(N)N)NC(=O)[C@H](CC(C)C)NC(=O)[C@H](CO)NC(=O)[C@H](C)NC(=O)[C@H](CS)NC(=O)[C@H](CC(C)C)NC(=O)[C@@H](N)CC(N)=O)[C@@H](C)O)C(=O)N1CCC[C@H]1C(=O)N[C@@H](CCC(N)=O)C(=O)N[C@@H](CS)C(=O)N[C@@H](CCCCN)C(=O)N[C@@H](CCCCN)C(=O)N[C@@H](Cc1ccccc1)C(=O)NCC(=O)N[C@@H](CCCN=C(N)N)C(=O)N[C@@H](CCCN=C(N)N)C(=O)O` [NLCASLRARHTIPQCKKFGRR]: the MIC in [29] was 16 µM (≈ 39.3 µg/mL); in test [30], 2.57 µM (≈ 6.3 µg/mL); in [31], 16 µM (≈ 39.3 µg/mL); in test [32], > 32 µM and 16 µM; in [33], 2.57 µM (≈ 6.3 µg/mL); in test [34] it was 32 µM (≈ 78.6 µg/mL). In addition, the MIC worked out at 2.57 µM (≈ 6.3 µg/mL) in test [35] and 5.09 µM (≈ 12.5 µg/mL) in [36].

On to `CC[C@H](C)[C@H](NC(=O)[C@H](CCCN=C(N)N)NC(=O)[C@@H](N)CCCN=C(N)N)C(=O)N[C@@H](CCCN=C(N)N)C(=O)N1CCC[C@H]1C(=O)N[C@@H](CCCN=C(N)N)C(=O)N1CCC[C@H]1C(=O)N[C@@H](CCCN=C(N)N)C(=O)O` [RRIRPRPR], for which the MIC in test [30] was above 128 µM; in [37] it was at least 128 µM.
